The record followed here is patent US9371265B2, “Compositions and methods related to inhibitors of JAK kinase” (EP PHARMA, INC., priority 2012, dated 2016).

The target in one series is AURKB (Homo sapiens, UniProt Q96GD4). Description: Kinase panel: AURKB. Type of series: biochemical. Particulars: 10 μM EP009. Here is the method:
(§1) Achieving JAK3 selectivity remains a significant challenge in the development of new small molecules for the treatment of cancer and immune-derived diseases. As such, the inventors employed cell-based screening assays of small-molecule libraries based upon the chemical scaffold of the established JAK3 inhibitor NC1153 (Stepkowski et al., J Immunol. (2005), 175(7):4236-4246) EP009 (FIG. 2A) was selected as a lead compound due to improved intrinsic stability (>95% purity in various solvents at 37° C. for 24 hours; FIG. 3) and high-degree of JAK3 selectivity. To test JAK3 versus JAK2 specificity of EP009, the IL-2/JAK3-dependent Kit225, and IL-3/JAK2-dependent BaF/3 cell lines were used. Kit225 and BaF/3 cells growing in the presence of IL-2 or IL-3, respectively, were treated with ascending concentrations of EP009 for 12 hours and cellular JAK3 and JAK2 tyrosine phosphorylation levels detected by Western blot analysis (FIGS. 2B and 2C). Following densitometric analysis, EP009 was determined to dose-dependently reduce IL-2-mediated JAK3 tyrosine phosphorylation with a cellular 50% inhibitory concentration (IC50) between 10 and 20 μM (FIG. 2B). […] To globally evaluate specificity, the inhibitory activity of EP009 was measured against a panel of protein kinases distributed throughout the kinome using the scanEDGE profiling service (KINOMEscan). […]

A further series concerns the target ROCK2 (Homo sapiens, UniProt O75116). Briefly: Kinase panel: ROCK2. The following applies: 10 μM EP009. Type of series: biochemical. Here is the method: as §1
In a further series the target is PIM1 (Homo sapiens, UniProt P11309). Description: Kinase panel: PIM1. In kind it is biochemical. The following applies: 10 μM EP009. How it is done:
as §1

The subject of a further series is HEPG2. Briefly: HEPG2 cell viability (MTS). In kind it is cell-based, human. The following applies: 72 hours, concentrations giving complete loss of JAK3-dependent cell viability (0-10 μM). How it is done: (§2) FIGS. 2A-2F. Selective inhibition of JAK3 by EP009 results in loss of JAK3-dependent tumor cell line viability with no detectable off-target effects in key cell types. (A) Chemical structure of EP009 (M.W. 224.34). (B) Kit225 or (C) BaF/3 cells cultured in the presence of IL-2 or IL-3, respectively, were treated with vehicle (PBS; lane a) or increasing amounts of EP009 (0-50 μM; lanes b-h) for 12 hours. Cells were then lysed, clarified, and immunoprecipitated (IP) with anti-JAK3 (α-JAK3) or anti-JAK2 (α-JAK2), and subjected to Western blot (WB) analysis with anti-phosphotyrosine (α-pY). Blots were stripped and reprobed with corresponding antibody to verify equivalent protein loading. […] (E) Kit225 or BaF/3 cells were cultured with increasing amounts of EP009 (0-10 μM) for 72 hours and cell viability measured with the MTS tetrazolium salt assay. Values represent mean absorbance (OD490-OD650 nm) normalized to vehicle (PBS) treated control cells, while error bars represent the standard deviation (n=3). (F) HEK293, HEPG2, or naïve primary human PBMCs were cultured with increasing amounts of EP009 (0-10 μM) for 72 hours and cell viability measured with the MTS tetrazolium salt assay. Values represent mean absorbance (OD490-OD650 nm) normalized to vehicle (PBS) treated control cells, while error bars represent the standard deviation (n=3). […]

A further series concerns the target TGFBR1 (Homo sapiens, UniProt P36897). Briefly: Kinase panel: TGFBR1. Particulars: 10 μM EP009. Type of series: biochemical. How it is done: as §1
The target in another series is PAK1 (Homo sapiens, UniProt Q13153). Briefly: Kinase panel: PAK1. In kind it is biochemical. Particulars: 10 μM EP009. Here is the method:
as §1

The subject of another series is normal human naïve PBMCs. Briefly: Naive PBMC viability (MTS). Type of series: cell-based. The following applies: 72 hours, concentrations giving complete loss of JAK3-dependent cell viability (0-10 μM). Here is the method:
as §2

For another series, the target named is ABL1-phosphorylated (Homo sapiens, UniProt P00519). Description: Kinase panel: ABL1-phosphorylated. Type of series: biochemical. Particulars: 10 μM EP009. How it is done:
as §1

Chain of PIM1 (P11309 whole entry): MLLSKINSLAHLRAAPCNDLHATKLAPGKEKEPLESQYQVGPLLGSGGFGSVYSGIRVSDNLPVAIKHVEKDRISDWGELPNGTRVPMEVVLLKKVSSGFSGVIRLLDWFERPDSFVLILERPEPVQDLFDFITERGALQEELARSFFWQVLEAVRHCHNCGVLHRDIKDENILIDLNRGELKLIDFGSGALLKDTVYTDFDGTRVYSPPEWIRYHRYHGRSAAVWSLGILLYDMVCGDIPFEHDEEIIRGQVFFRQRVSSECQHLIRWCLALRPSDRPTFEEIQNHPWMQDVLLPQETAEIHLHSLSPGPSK
Chain of AURKB (Q96GD4 whole entry): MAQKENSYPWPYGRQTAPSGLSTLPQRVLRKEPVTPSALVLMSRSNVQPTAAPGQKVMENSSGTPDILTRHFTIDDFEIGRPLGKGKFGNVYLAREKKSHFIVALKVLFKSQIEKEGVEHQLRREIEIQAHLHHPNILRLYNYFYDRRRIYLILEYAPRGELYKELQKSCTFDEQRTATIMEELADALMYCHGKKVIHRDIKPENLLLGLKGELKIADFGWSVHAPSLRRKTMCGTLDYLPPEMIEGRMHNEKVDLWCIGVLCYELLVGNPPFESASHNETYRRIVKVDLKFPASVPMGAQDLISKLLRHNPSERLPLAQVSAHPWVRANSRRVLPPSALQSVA
Chain of TGFBR1 (P36897 34-503): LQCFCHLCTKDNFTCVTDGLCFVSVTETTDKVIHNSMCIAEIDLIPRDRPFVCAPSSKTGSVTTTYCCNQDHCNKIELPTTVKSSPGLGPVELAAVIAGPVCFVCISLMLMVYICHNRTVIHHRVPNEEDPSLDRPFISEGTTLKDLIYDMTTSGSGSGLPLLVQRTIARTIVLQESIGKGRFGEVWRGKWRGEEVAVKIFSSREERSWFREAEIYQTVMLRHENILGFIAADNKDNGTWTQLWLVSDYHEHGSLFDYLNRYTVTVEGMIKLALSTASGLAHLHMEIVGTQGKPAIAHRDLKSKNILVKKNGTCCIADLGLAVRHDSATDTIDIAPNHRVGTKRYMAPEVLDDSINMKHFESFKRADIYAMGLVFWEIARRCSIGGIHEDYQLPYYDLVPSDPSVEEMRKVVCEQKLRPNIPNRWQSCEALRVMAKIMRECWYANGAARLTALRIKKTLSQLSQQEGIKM
Chain of PAK1 (Q13153 whole entry): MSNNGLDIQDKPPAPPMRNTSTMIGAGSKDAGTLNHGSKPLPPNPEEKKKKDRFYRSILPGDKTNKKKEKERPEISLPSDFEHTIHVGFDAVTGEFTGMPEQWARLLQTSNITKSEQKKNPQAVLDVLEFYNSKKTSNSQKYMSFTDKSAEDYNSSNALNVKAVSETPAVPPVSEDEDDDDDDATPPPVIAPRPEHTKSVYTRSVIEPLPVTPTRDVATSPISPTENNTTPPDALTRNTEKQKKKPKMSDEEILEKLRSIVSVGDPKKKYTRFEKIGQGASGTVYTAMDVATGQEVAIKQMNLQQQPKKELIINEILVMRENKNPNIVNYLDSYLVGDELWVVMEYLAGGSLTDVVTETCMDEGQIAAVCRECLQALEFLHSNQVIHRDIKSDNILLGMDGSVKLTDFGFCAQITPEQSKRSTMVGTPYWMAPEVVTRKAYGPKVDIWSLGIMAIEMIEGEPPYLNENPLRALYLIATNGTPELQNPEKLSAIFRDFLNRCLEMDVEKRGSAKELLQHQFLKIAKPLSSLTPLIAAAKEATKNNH
Chain of ROCK2 (O75116 whole entry): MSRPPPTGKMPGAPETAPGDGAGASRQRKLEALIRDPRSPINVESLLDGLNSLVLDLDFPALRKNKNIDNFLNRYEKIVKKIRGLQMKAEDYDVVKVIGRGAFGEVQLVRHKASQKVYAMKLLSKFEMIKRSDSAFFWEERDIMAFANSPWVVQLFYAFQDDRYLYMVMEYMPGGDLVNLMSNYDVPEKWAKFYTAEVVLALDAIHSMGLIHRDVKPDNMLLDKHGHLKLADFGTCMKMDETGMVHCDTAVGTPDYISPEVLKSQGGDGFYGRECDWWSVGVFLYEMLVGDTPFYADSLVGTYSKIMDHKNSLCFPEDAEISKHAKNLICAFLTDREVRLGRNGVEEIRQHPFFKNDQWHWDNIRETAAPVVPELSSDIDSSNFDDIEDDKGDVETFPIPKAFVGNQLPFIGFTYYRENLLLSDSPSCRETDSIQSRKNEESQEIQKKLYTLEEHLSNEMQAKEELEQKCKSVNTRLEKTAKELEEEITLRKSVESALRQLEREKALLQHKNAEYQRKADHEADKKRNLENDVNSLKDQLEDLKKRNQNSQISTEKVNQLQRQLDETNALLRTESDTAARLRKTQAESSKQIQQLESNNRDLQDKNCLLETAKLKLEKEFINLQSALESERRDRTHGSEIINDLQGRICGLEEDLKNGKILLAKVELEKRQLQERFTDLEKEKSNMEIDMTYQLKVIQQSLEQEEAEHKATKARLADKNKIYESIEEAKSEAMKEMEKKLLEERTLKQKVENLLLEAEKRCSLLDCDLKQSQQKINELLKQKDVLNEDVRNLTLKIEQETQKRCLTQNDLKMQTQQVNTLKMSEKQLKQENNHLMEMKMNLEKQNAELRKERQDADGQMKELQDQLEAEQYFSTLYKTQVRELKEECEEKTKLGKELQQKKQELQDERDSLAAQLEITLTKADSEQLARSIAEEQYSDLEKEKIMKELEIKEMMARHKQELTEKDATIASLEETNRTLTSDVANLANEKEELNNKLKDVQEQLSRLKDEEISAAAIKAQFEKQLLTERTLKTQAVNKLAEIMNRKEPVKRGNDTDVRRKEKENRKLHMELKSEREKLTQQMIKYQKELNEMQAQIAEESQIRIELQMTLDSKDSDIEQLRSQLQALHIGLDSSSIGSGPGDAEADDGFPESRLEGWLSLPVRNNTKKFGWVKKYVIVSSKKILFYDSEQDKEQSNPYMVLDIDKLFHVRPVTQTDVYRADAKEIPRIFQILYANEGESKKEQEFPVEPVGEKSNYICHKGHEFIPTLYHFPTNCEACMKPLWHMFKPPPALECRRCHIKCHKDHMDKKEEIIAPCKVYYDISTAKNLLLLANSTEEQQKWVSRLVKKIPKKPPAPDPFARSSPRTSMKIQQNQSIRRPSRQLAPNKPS
Chain of ABL1-phosphorylated (P00519 whole entry): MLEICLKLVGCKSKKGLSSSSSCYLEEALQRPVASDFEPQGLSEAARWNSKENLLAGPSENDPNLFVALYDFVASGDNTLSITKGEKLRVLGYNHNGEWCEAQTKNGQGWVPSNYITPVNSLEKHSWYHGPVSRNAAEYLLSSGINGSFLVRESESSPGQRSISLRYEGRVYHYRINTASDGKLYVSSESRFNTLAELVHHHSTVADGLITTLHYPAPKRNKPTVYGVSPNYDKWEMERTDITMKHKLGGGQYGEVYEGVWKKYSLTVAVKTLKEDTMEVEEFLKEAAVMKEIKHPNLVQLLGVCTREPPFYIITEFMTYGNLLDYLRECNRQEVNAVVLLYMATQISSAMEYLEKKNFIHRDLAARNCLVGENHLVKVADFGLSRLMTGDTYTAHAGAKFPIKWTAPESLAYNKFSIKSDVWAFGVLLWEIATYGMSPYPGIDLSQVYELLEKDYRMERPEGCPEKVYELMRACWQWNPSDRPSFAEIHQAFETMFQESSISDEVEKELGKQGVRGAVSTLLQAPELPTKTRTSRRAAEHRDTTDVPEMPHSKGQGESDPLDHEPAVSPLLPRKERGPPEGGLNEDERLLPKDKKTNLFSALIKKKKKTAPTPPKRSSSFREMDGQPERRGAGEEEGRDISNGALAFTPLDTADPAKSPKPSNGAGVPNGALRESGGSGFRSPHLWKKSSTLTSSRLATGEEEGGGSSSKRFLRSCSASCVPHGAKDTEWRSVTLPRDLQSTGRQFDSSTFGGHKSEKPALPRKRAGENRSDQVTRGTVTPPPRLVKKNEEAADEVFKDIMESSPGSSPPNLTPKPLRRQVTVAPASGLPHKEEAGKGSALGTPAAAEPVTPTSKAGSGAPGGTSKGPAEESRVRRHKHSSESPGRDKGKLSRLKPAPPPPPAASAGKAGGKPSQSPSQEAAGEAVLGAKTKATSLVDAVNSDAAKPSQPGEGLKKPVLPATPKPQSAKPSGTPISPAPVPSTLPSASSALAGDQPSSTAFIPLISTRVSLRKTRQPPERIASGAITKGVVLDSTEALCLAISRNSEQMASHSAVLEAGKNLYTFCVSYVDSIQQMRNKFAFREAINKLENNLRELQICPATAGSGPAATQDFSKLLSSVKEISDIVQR

On to `C=C1CCCCCCCCCC(CO)C1=O` (centres unmarked) [EP009, 2-(Hydroxymethyl)-12-methylenecyclododecanone], for which the “Kinase Activity (% of Control)” value on AURKB is on record as 99 % of Control; at ROCK2, 99 % of Control; at PIM1, 100 % of Control; at TGFBR1 it was 100 % of Control; on PAK1, 100 % of Control; at ABL1-phosphorylated, 100 % of Control. In addition, the “effect on HEPG2 cell viability” value with HEPG2 was “no detectable loss of cell viability”. The “effect on normal human naïve PBMC viability” value in the series with normal human naïve PBMCs is listed as “no detectable loss of cell viability”.
